Legend:
[1] = test system: Smad3 and phosphorylated Smad3 in human skin fibroblasts; assay: Smad3 activation in western blotting; type: cell-based; details: 24 h treatment, then TGF-β 1 ng/mL 30 min; tested at 30 and 300 nM; western blot
Procedure: Cells were allowed to adhere overnight before being replaced with serum-free FBM for 24 h. Serum-starved cells were first pretreated with samples in DMSO at 30 and 300 nM for 24 h and then stimulated with 1 ng/mL TGF-β for 30 min. Cell lysates were prepared with lysis buffer and cellular proteins (11 μg/well) were separated by sodium dodecyl sulfate-polyacrylamide gel electrophoresis (4–20% Criterion TGX Precast Gel; Bio-Rad, Ontario, CA, USA). Protein bands were then transferred to polyvinylidene fluoride membranes (Trans-Blot Turbo Midi, Bio-Rad). Following blocking, the membranes were incubated with primary antibodies targeted against phospho-Smad3 (Cell Signaling Technology), Smad3 (Cell Signaling Technology) and β-actin (Cell Signaling Technology) followed by horseradish peroxidase-conjugated secondary antibody (Cell Signaling Technology). ECL Prime Western Blotting Detection Reagent (GE Healthcare Bio-Sciences, Little Chalfont, England) and LAS-3000 image analyzer (Fuji-film, Tokyo, Japan) were used for detection. Western blot band intensities were calculated by densitometric analyses with National Institutes of Health image software, Image J. Representative pictures are shown with quantified densitometric data.

[2] = test system: primary human skin fibroblast; assay: mRNA expression of fibrosis-related genes by real-time quantitative RT-PCR; type: cell-based; details: 1-300 nM, TGF-β 1 ng/mL, 24 h
Procedure: Cells were allowed to adhere overnight before being replaced with serum-free FBM for 24 h. Serum-starved cells were first pretreated with samples in DMSO at concentrations between 1 and 300 nM for 30 min and then stimulated with 1 ng/mL TGF-β for 24 h. Then total RNA was collected from the cells by RNeasy 96 Kit (Qiagen, Valencia, CA, USA) and DNaseI (Qiagen) according to the manufacturer's protocol.
(§1) Total RNA was isolated from in vivo samples using ISOGEN II (Nippongene) according to the manufacturer's instructions. In vitro RNA samples were prepared as mentioned above. High Capacity cDNA Reverse Transcription Kit (Life Technologies, Carlsbad, CA, USA) was used for cDNA synthesis. Real-time quantitative RT-PCR reactions were performed as a TaqMan method on a ViiA 7 real-Time PCR System (Life Technologies), using TaqMan Fast Advanced Master Mix (Lifer Technologies) with specific primers on TaqMan Gene Expression Assays (Life Technologies) according to the manufacturer's manual. FAM-probed primers were used: COL1A1, Hs00164004_m1; α-SMA/ACTA2, Hs00426835_g1; fibroblast growth factor 2 (FGF2), Hs00266645_m1; Smad specific E3 ubiquitin protein ligase 2 (SMURF2), Hs00224203_m1; DDIT3, Hs00358796_g1; and glyceraldehyde 3-phosphate dehydrogenase (GAPDH), 4326317E for human in vitro cell assay. FAM-probed and TAMRA-quenched primers (Sigma-Aldrich Japan, Tokyo, Japan) were used: Col1a1, NM_007742; type I collagen alpha 2 (Col1a2), NM_007743; α-Sma/Acta2, NM_007392; and Gapdh, NM_008084 for mouse in vivo assay (S1 Table). The relative mRNA level of the target genes was calculated by the comparative threshold cycle (Ct) method using GAPDH (Gapdh) as an internal control for normalization. The fold change in the expression of each target gene was calculated by the following formula: relative quantification (RQ) = 2^-ΔΔCt.

[3] = test system: TGF-β-induced fibrotic genes expression in mouse ear skin; assay: TGF-β-induced fibrotic gene expression in mouse ear, topical application; type: in vivo; details: for expression of fibrosis-related genes (Col1a1, Col1a2, α-Sma) in mouse ear: topical cream daily, 1 h before TGF-β 500 ng intradermal x5, T-3833261 0.01-0.1%, HF 0.01%
Procedure: Standard chow diet and water were available ad libitum.
A vehicle without compounds was applied to control mice. […] Topical application of compound was continued for 7 days.
as §1

skin fibroblasts = assay: Proline addition assay (α-SMA mRNA); type: cell-based, human; details: proline 0.05, 0.2 and 1 mM; compound 1-300 nM; 24 h
Procedure: Total RNA was isolated from in vivo samples using ISOGEN II (Nippongene) according to the manufacturer's instructions. In vitro RNA samples were prepared as mentioned above. High Capacity cDNA Reverse Transcription Kit (Life Technologies, Carlsbad, CA, USA) was used for cDNA synthesis. Real-time quantitative RT-PCR reactions were performed as a TaqMan method on a ViiA 7 real-Time PCR System (Life Technologies), using TaqMan Fast Advanced Master Mix (Lifer Technologies) with specific primers on TaqMan Gene Expression Assays (Life Technologies) according to the manufacturer's manual. […] The relative mRNA level of the target genes was calculated by the comparative threshold cycle (Ct) method using GAPDH (Gapdh) as an internal control for normalization. The fold change in the expression of each target gene was calculated by the following formula: relative quantification (RQ) = 2^-ΔΔCt.
To evaluate the effect of proline addition on anti-fibrosis by each compound, the cells were allowed to adhere overnight before being replaced with serum-free FBM for 24 h. […] Then real-time quantitative RT-PCR analysis was conducted as mentioned above.

[4] = body weight and tolerability on topical application in mice; details: mouse; for tolerability: dermal topical application; for Body weight day 0 / Body weight day 7: topical, mean ± SE (n = 4-8)
Procedure: The experimenters were blinded to the treatments given to the animals and to the biochemical and histological analyses and the data analyses. Eight-week-old C3H/He male mice (weighing 23~28 g, Japan SLC, Inc., Hamamatsu, Japan) were used for all the in vivo experiments. […] These animals were maintained on a 12/12 h light/dark cycle with constant temperature (23 ± 2°C) under specific pathogen-free conditions. Standard chow diet and water were available ad libitum.
After acclimatization for 1 weeks, animals were randomly divided according to body weight and treated for 3 to 5 consecutive days as follows. The ear and dorsal skin of mouse were intradermally injected with 20 μL (100 μL, dorsal skin) PBS or 500 ng TGF-β in PBS under anaesthesia with 3–4% sevoflurane. Injections were continued in this manner daily for 3 days (days 0, 1 and 2) or 5 days (days 0, 1, 2, 3 and 4). Treatment protocol included the daily topical application of T-3833261 or HF cream on the ear (40 μL/ear) 1 h before injections into the ear. A vehicle without compounds was applied to control mice. The topical material contained sorbitan sesquioleate (50 g), lanolin (50 g), liquid paraffin (250 g), propylene glycol (50 g), 90% lactic acid (1.5 g), T-3833261 (0.1, 0.3 and 1 g) or HF (0.1 g), and distilled water as the rest material. Topical application of compound was continued for 7 days. Mice were euthanized by cervical dislocation under sevoflurane anesthesia at 3 or 5 days after last TGF-β injection and the ear surrounding the TGF-β injection site was harvested with 8 μm biopsy punch under anesthesia.

| Compound | concentration showing a decrease in TGF-β-induced accumulation of Smad3 [1] [nM] | concentration showing a decrease in phosphorylated Smad3 (p-Smad3) [1] [nM] | COL1A1 mRNA expression [2] | DDIT3 mRNA expression [2] | FGF2 mRNA expression [2] | SMURF2 mRNA expression [2] | α-SMA mRNA expression [2] | expression of fibrosis-related genes (Col1a1, Col1a2, α-Sma) in mouse ear [3] | effect of proline addition on inhibition of α-SMA gene expression (skin fibroblasts) | tolerability [4] | activity on fibrotic gene expression relative to HF formulation ([3]; 0.1% formulation of T-3833261, topical, mouse ear) | Body weight day 0 ([4]; 0.01% cream) [g] | Body weight day 7 ([4]; 0.01% cream) [g] | Body weight day 0 ([4]; 0.03% cream) [g] | Body weight day 7 ([4]; 0.03% cream) [g] | Body weight day 0 ([4]; 0.1% cream) [g] | Body weight day 7 ([4]; 0.1% cream) [g] | body weight of the mice after one week of continuous topical application ([4]; topical cream) |
| --- | --- | --- | --- | --- | --- | --- | --- | --- | --- | --- | --- | --- | --- | --- | --- | --- | --- | --- |
| O=C(CC1NCCCC1O)Cn1cnc2cc(Br)c(Cl)cc2c1=O (stereo not shown) [HF, Halofuginone, reference compound] | 300 | 300 | reduced to near the level of non-stimulated control | dose-dependently increased DDIT3 expression | dose-dependently increased SMURF2 and FGF2 expressions | dose-dependently increased SMURF2 and FGF2 expressions | suppressed TGF-β-induced expression of α-SMA | prevented the skin fibrotic genes expression induced by TGF-β | attenuated by adding proline to the medium | well-tolerated |  |  |  |  |  |  |  |  |
| Cn1cc(-c2cc(F)cc(CNC(=O)c3nccc4nc(C5CCCC5)[nH]c34)c2)cn1 [T-3833261, 2-Cyclopentyl-N-(3-fluoro-5-(1-methyl-1H-pyrazol-4-yl)benzyl)-3H-imidazo[4,5-c]pyridine-4-carboxamide] | 30 | 300 | suppressed expression of these fibrotic genes | dose-dependently increased DDIT3 expression | dose-dependently increased SMURF2 and FGF2 expressions | dose-dependently increased SMURF2 and FGF2 expressions | suppressed expression of these fibrotic genes | reduced expression of these fibrotic genes in a dose-dependent manner | proline addition did not affect the activity | well-tolerated | comparable activity to a 0.01% HF formulation | 22.9 ± 0.8 | 23.8 ± 0.5 | 23.1 ± 0.6 | 23.4 ± 0.4 | 22.4 ± 0.4 | 22.2 ± 0.5 | did not change |
